Reference: patent publication US20070036793A1, “Methods for use of an lkb1/strad7mo25 complex” (priority 2003, published 2007)
Entries after “also recorded” stand apart in the source; their conditions may differ.

What was measured:
AMPK = biological target: T1, AMPK (Homo sapiens, UniProt Q13131); test: Activation and Thr-172 phosphorylation of endogenous AMPK in HeLa cells with or without stably expressed LKB1; format: cell-based; details: 2 mM AICA riboside or 10 mM phenformin, 60 min
T1 construct: Endogenous AMPK was immunoprecipitated from the cell extracts and assayed; endogenous in cells; host or cells: HeLa cells (control, or stably expressing wild type or kinase-dead LKB1)
Experimental: FIG. 18: Restoration of the ability of AMPK to be activated by AICA riboside and phenformin in HeLa cells by expression of LKB1. Control HeLa cells (lanes 1, 2, 3), HeLa cells expressing wild type (WT) LKB1 (lanes 4, 5, 6) and kinase dead (D194A, KD) mutant LKB1 (lanes 7, 8, 9) were either left unstimulated or treated with 2 mM AICA riboside or 10 mM phenformin for 60 min and lysed. (A) Endogenous AMPK was immunoprecipitated from the cell extracts and assayed. (B) The cell lysates was immunoblotted with antibodies recognising AMPKα1 phosphorylated at Thr172 or total AMPKα1; the results were analysed using the LI-COR IR Odyssesy™ imager as described under Materials and Methods, and are expressed as a ratio of the two signals. (C) The cell lysates was analysed by Western blotting and the membranes probed with antibodies recognising ACC phosphorylated at Ser-79, or streptavidin to determine total […]. The results were analysed using the LI-COR IR imager as for (B).
AMPK [14]and AMPKK [34] were assayed, and units defined, as described previously. Rapid lysis of cells for AMPK assays was as described previously. Assays were carried out in triplicate and results are expressed as mean ± standard deviation.
To analyse phosphorylation of ACC, samples were analysed by SDS-PAGE, transferred to nitrocellulose (BioRad) and incubated in Odyssey™ Blocking buffer containing 0.2% Tween-20 for 1 h. Anti-pACC antibody (1.46 μg/ml in blocking buffer) was then added and left shaking for 1 h. The membranes were washed 6×5 min with TBS (10 mM Tris-HCl, pH 7.4, 0.5M NaCl) plus Tween-20 (0.2%). The membranes were immersed in blocking buffer containing 0.2% Tween-20 and 1 μg/ml anti-sheep IgG conjugated to JR dye 680 (Molecular Probes, Leiden, The Netherlands) and 1 μg/ml streptavidin conjugated to IR Dye 800 (Rockland Inc., Philadelphia, Pa.) and left shaking for 1 h, protected from light. The membranes were then washed 6×5 min using TBS-Tween (0.2%) and 1×5 min in PBS. The membranes were scanned in two different channels using the Odyssey™ IR imager, the results quantified using Odyssey™ software and expressed as a ratio of the signal obtained with the pACC antibody to that obtained with streptavidin. Analysis of phosphorylation of GST-α1 catalytic domain was similar except that the 4-12% Bis-Tris gels were used, and the membranes were simultaneously probed for 1 h with the sheep anti-pT172 and anti-AMPKα1-catalytic domain antibodies, directly labelled with the IR dye 680 and IR Dye 800 respectively, according to manufacturers' instructions.

[1] = system: AMPK-related kinases (NUAK2, QIK, QSK, SIK, MARK1, MARK2/3, MARK4); test: Activity of endogenous AMPK-related kinases immunoprecipitated from MEFs after drug stimulation; format: cell-based, mouse; details: 1 h
Experimental: FIG. 27 Activity of AMPK-related kinases in LKB1+/+ and LKB1^−/− MEFs. LKB1^+/+ or LKB1^−/− MEFs were either left untreated (black bars) or stimulated with 10 mM phenformin (Phen, white bars) for 1 h. AMPKα1 and AMPK-related kinases were immunoprecipitated from the cell lysates, and in vitro kinase activity towards the AMARA peptide was measured as described in Materials and Methods (Example 4). To confirm equal expression of the kinases in each sample, cell lysates (AMPKα1, NUAK2, MARK2/3 and MARK4) or immunoprecipitated proteins (QIK, QSK, SIK and MARK1) were subjected to SDS-PAGE and western blot analysis. All AMPK-related kinases migrated with the expected molecular mass. In the case of AMPKα1, cell lysates were immunoblotted with a phospho Thr172 antibody (P-AMPK), that recognises the phosphorylated T-loop. […]
FIG. 28. […] AMPKα1/a2 and LKB1 were immunoprecipitated from the cell lysates, and in vitro kinase activity towards the AMARA and LKBtide peptides respectively, were measured as described in Materials and Methods (Example 4). […] AMPKα1 and the indicated AMPK-related kinases were immunoprecipitated from the cell lysates, and in vitro kinase activity towards the AMARA peptide measured as described in Materials and Methods. […]
Cell culture, stimulation and cell lysis. […] Protein concentrations were determined by the Bradford method with bovine serum albumin as the standard (Bradford, 1976). […]

[2] = HeLa cells stably expressing wild type LKB1
[3] = control HeLa cells not expressing LKB1

T1 sequence (Q13131 whole entry): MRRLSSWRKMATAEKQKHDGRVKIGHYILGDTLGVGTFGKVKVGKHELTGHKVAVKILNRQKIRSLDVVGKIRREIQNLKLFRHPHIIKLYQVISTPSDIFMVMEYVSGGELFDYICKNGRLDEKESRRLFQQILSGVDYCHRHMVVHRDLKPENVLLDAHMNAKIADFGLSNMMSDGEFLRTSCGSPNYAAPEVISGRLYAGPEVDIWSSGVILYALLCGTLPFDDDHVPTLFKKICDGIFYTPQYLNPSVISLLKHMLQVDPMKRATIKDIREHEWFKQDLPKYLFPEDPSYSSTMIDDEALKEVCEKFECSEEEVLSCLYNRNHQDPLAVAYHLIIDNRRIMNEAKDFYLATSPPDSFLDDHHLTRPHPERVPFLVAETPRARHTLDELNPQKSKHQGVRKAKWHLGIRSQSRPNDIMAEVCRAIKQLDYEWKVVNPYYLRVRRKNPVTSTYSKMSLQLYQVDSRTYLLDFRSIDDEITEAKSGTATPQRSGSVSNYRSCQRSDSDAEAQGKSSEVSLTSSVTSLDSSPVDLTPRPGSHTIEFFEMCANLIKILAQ
T1 sequence (Q9Y478 2-270 partner limits assumed): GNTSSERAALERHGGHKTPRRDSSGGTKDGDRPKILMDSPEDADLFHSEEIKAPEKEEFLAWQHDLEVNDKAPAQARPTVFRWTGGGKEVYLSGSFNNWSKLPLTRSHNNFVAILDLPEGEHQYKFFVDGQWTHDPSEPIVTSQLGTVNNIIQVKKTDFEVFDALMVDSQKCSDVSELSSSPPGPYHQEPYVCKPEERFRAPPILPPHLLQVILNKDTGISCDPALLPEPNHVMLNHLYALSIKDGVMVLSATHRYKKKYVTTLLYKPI
T1 sequence (P54619 whole entry partner): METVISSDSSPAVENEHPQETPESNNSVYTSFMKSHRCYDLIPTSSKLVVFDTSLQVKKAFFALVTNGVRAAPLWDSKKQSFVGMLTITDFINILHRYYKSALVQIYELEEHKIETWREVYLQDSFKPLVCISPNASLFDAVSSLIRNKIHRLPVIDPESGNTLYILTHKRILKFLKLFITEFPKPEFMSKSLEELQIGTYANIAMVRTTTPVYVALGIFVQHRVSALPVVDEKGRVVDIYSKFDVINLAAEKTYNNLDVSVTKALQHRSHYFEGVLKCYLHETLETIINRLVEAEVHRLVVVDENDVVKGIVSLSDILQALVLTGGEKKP

| Compound | activation of AMPK (AMPK; [2]) | phosphorylation of Thr-172 on the AMPKα subunit (AMPK; [2]) | activation of AMPK (AMPK; [3]) | activity of AMPK-related kinases ([1]; LKB1+/+ MEFs, 2 mM AICA riboside) | activity of AMPK-related kinases ([1]; MEFs, 10 mM phenformin) |
| --- | --- | --- | --- | --- | --- |
| NC(=O)c1ncn([C@@H]2O[C@H](CO)[C@@H](O)[C@H]2O)c1N [AICA riboside, 5-aminoimidazole-4-carboxamide (AICA) riboside] | robust activation | restored | neither AICA riboside nor phenformin activated AMPK | failed to markedly activate | – |
| [H]/N=C(/N)N/C(=N/[H])NCCc1ccccc1 [phenformin] | robust activation; also recorded: larger activation of AMPK | restored | neither AICA riboside nor phenformin activated AMPK | – | not significantly stimulated |
